Data taken from patent US11939300B2, “Compounds and methods for treating autoimmune disorders by targeting HLA-DQ2” (ImmunoMolecular Therapeutics, Inc., priority 2020, dated 2024).

Test system: HLA-DQ2
Test: Inhibition of IL-2 secretion by TCR transductants stimulated by α-gliadin peptides presented by HLA-DQ2 expressing K562 cells (ELISA)
Assay type: cell-based, human
Conditions: for DQ2 IL2 Maximal % Inhibition: IL-2 secretion, at the concentration given in brackets; for concentration at which the compound exhibited maximum % inhibition (DQ2 IL2): from dose-response curve, figure in brackets in the cell
Experimental: Three commercially available analogues of the DQ2 binding molecules of the invention were tested for their ability to inhibit stimulation of T cell receptor (TCR) transductants in the presence of HLA-DQ2 expressing cells presenting known α-gliadin epitopes.
Using a previously published in vitro assay (Ostrov D, et al. Methyldopa blocks MHC class II binding to disease specific antigens in autoimmune diabetes. J Clin Invest. 2018:128(5)) we measured the ability of these DQ2 binding analogues to inhibit interleukin-2 (IL-2) secretion by TCR transductants stimulated by α-gliadin peptides presented by HLA-DQ2. Individual TCR transductants (recognizing α I-gliadin or α II-gliadin) were cultured with a gliadin peptide plus the small molecule analogues in the presence of HLA-DQ2 expressing K562 cells serving as antigen presenting cells. TCR transductants cultured with no gliadin peptide served as the negative control, and incubation with an anti-CD3 antibody (eBioscience; clone 2C11) served as a positive control for the TCR transductant. Secreted IL-2 in the culture supernatant was measured using a highly sensitive enzyme-linked immunosorbent assay (ELISA). […] Assays for effects on cell viability and for specificity, assayed in the absence of gliadin peptide or in the presence of a stimulating anti-CD3 antibody, were performed. A=71-100%; B=41-70%; C=11-40%; D=0-10%, NT=Not tested.

[1] = TCR transductants (α I- or α II-gliadin) + gliadin peptide + HLA-DQ2 K562 cells
[2] = Table 2, TCR transductants + gliadin peptide + HLA-DQ2 K562 cells

Cn1nc2c(cc1=O)CC(NC(=O)c1ccc(Cl)cc1)CC2 (stereo not shown) [Compound 33]
DQ2 IL2 Maximal % Inhibition [1]: B (B=41-70%) | concentration at which the compound exhibited maximum % inhibition (DQ2 IL2): 200 µM

CCn1nc2c(cc1=O)CC(NC(=O)c1ccc(C(C)C)cc1)CC2 (stereo not shown) [Compound 40]
DQ2 IL2 Maximal % Inhibition [1]: B (B=41-70%) | concentration at which the compound exhibited maximum % inhibition (DQ2 IL2): 200 µM

CC(C)c1ccc(C(=O)NC2CCc3nn(CC(C)(C)O)c(=O)cc3C2)cc1 (stereo not shown) [Compound 58]
DQ2 IL2 Maximal % Inhibition [1]: A (A=71-100%) | concentration at which the compound exhibited maximum % inhibition (DQ2 IL2): 200 µM

CCCn1nc2c(cc1=O)CC(NC(=O)c1ccc(C(C)C)cc1)CC2 (stereo not shown) [Compound 41]
DQ2 IL2 Maximal % Inhibition [1]: A (A=71-100%) | concentration at which the compound exhibited maximum % inhibition (DQ2 IL2): 200 µM

Cc1ccc(C(=O)NC2CCc3n[nH]c(=O)cc3C2)cc1 (stereo not shown) [Compound 2]
DQ2 IL2 Maximal % Inhibition [1]: C (C=11-40%) | concentration at which the compound exhibited maximum % inhibition (DQ2 IL2): 100 µM

O=C(NC1CCc2n[nH]c(=O)cc2C1)c1ccc(F)cc1 (stereo not shown) [Compound 28]
DQ2 IL2 Maximal % Inhibition [1]: C (C=11-40%) | concentration at which the compound exhibited maximum % inhibition (DQ2 IL2): 200 µM

Cn1nc2c(cc1=O)CC(NC(=O)c1ccc(I)cc1)CC2 (stereo not shown) [Compound 35]
DQ2 IL2 Maximal % Inhibition [1]: B (B=41-70%) | concentration at which the compound exhibited maximum % inhibition (DQ2 IL2): 200 µM

CCCC(=O)NC1CCc2nn(C)c(=O)cc2C1 (stereo not shown) [Compound 23]
DQ2 IL2 Maximal % Inhibition [1]: C (C=11-40%) | concentration at which the compound exhibited maximum % inhibition (DQ2 IL2): 100 µM

Cn1nc2c(cc1=O)CC(NC(=O)c1ccc(C(F)(F)F)cc1)CC2 (stereo not shown) [Compound 21]
DQ2 IL2 Maximal % Inhibition [1]: A (A=71-100%) | concentration at which the compound exhibited maximum % inhibition (DQ2 IL2): 100 µM

CC(C)c1ccc(C(=O)NC2CCc3nn(C4CC4)c(=O)cc3C2)cc1 (stereo not shown) [Compound 53]
DQ2 IL2 Maximal % Inhibition [1]: A (A=71-100%) | concentration at which the compound exhibited maximum % inhibition (DQ2 IL2): 200 µM

CC(C)c1ccc(C(=O)NC2CCc3nn(CC(F)(F)F)c(=O)cc3C2)cc1 (stereo not shown) [Compound 57, 4-isopropyl-N-(3-oxo-2-(2,2,2-trifluoroethyl)-2,3,5,6,7,8-hexahydrocinnolin-6-yl)benzamide]
DQ2 IL2 Maximal % Inhibition [1]: A (A=71-100%) | concentration at which the compound exhibited maximum % inhibition (DQ2 IL2): 200 µM

CC(C)c1ccc(C(=O)NC2CCc3nn(C4CCCCC4)c(=O)cc3C2)cc1 (stereo not shown) [Compound 54]
DQ2 IL2 Maximal % Inhibition [1]: A (A=71-100%) | concentration at which the compound exhibited maximum % inhibition (DQ2 IL2): 200 µM

Cn1nc2c(cc1=O)CC(NC(=O)c1ccc3ccccc3c1)CC2 (stereo not shown) [Compound 17]
DQ2 IL2 Maximal % Inhibition [1]: A (A=71-100%) | concentration at which the compound exhibited maximum % inhibition (DQ2 IL2): 100 µM

CC(=O)NC1CCc2n[nH]c(=O)cc2C1 (stereo not shown) [Compound 6]
DQ2 IL2 Maximal % Inhibition [1]: C (C=11-40%) | concentration at which the compound exhibited maximum % inhibition (DQ2 IL2): 50 µM

Cn1nc2c(cc1=O)CC(NC(=O)c1ccccc1)CC2 (stereo not shown) [Compound 16, N-(2-methyl-3-oxo-5,6,7,8-tetrahydrocinnolin-6-yl)benzamide]
DQ2 IL2 Maximal % Inhibition [1]: B (B=41-70%) | concentration at which the compound exhibited maximum % inhibition (DQ2 IL2): 100 µM

Cn1nc2c(cc1=O)CC(NC(=O)c1ccc(Br)cc1)CC2 (stereo not shown) [Compound 34]
DQ2 IL2 Maximal % Inhibition [1]: A (A=71-100%) | concentration at which the compound exhibited maximum % inhibition (DQ2 IL2): 200 µM

CCc1ccc(C(=O)NC2CCc3n[nH]c(=O)cc3C2)cc1 (stereo not shown) [Compound 60]
DQ2 IL2 Maximal % Inhibition [2]: A (A=71-100%) | concentration at which the compound exhibited maximum % inhibition (DQ2 IL2) (Table 2): 200 µM

Cn1nc2c(cc1=O)CC(NC(=O)c1ccc3ccccc3n1)CC2 (stereo not shown) [Compound 61]
DQ2 IL2 Maximal % Inhibition [2]: A (A=71-100%) | concentration at which the compound exhibited maximum % inhibition (DQ2 IL2) (Table 2): 200 µM

Cn1nc2c(cc1=O)CC(NC(=O)c1cccc3ccccc13)CC2 (stereo not shown) [Compound 22]
DQ2 IL2 Maximal % Inhibition [1]: C (C=11-40%) | concentration at which the compound exhibited maximum % inhibition (DQ2 IL2): 200 µM

Cc1ccc(C(=O)NC2CCc3nn(C)c(=O)cc3C2)cc1 (stereo not shown) [Compound 20]
DQ2 IL2 Maximal % Inhibition [1]: B (B=41-70%) | concentration at which the compound exhibited maximum % inhibition (DQ2 IL2): 200 µM
